# Measurements reported in patent US11534457B2, “Use of dextran sulfate” (priority 2017, dated 2022).
# System: severe traumatic brain injury (sTBI)
# Experiment: sTBI in rats, brain gene expression arrays and pathway analysis (Example 9)
# Assay type: in vivo, Male Wistar rats
# Set-up: key to z score, canonical pathway Dendritic Cell Maturation / z score, canonical pathway Adrenomedullin Signaling pathway / z score, canonical pathway Endothelin-1 Signaling / effect on canonical pathway Adrenomedullin Signaling pathway / effect on canonical pathway Endothelin-1 Signaling / effect on canonical pathway Dendritic Cell Maturation / Ingenuity canonical pathway Adrenomedullin signaling pathway, z score / Ingenuity canonical pathway FLT3 Signaling in Hematopoietic Progenitor Cells, z score / Ingenuity canonical pathway Opioid Signaling Pathway, z score / Ingenuity canonical pathway VDR/RXR Activation, z score / Ingenuity canonical pathway Neuropathic Pain Signaling In Dorsal Horn Neurons, z score / Ingenuity canonical pathway STAT3 Pathway, z score / Ingenuity canonical pathway IL-1 Signaling, z score / Ingenuity canonical pathway IL-6 Signaling, z score / Ingenuity canonical pathway NF-κB Signaling, z score / Ingenuity canonical pathway Role of NFAT in Cardiac Hypertrophy, z score / Ingenuity canonical pathway PPARα/RXRα Activation, z score: *: ambiguous effect
# Settings: TBI + 5 mg/kg LMW-DS
# Procedure: The experimental protocol used in this study was approved by the Ethical Committee of the Catholic University of Rome, according to international standards and guidelines for animal care. Male Wistar rats of 300-350 g body weight were fed with standard laboratory diet and water ad libitum in a controlled environment. As the anesthetic mixture, the animals received 35 mg/kg b.w. ketamine and 0.25 mg/kg body weight midazolam by i.p. injection. Severe traumatic brain injury (sTBI) was induced by dropping a 450 g weight from 2 m height on to the rat head that had been protected by a metal disk previously fixed on the skull, according to the “weight drop” impact acceleration model (Marmarou et al., A new model of diffuse brain injury in rats. Part I: Pathophysiology and biomechanics. J Neurosurg. 1994; 80: 291-300). […] At the end of each period of treatment, rats were anesthetized again and then immediately sacrificed.
# LMW-DS (Tikomed AB) was provided at a stock concentration of 20 mg/ml and was kept in a temperature-monitored refrigerator at 4° C. LMW-DS aliquots were diluted to the appropriate dosing concentration in sterile saline prior to delivery of a single subcutaneous injection.
# Three doses of LMW-DS were administered subcutaneously 30 minutes post-TBI. The animals were sacrificed at 2 days post-TBI. The animals were divided into the following subgroups:
# Three doses of LMW-DS were administered subcutaneously 30 minutes post-TBI. The animals were sacrificed at 7 days post-TBI. The animals were divided into the following subgroups:
# An in vivo craniectomy was performed on all animals during anesthesia. After carefully removing the rat's skull, the brain was exposed and removed with a surgical spatula and quickly dropped in RNALater and preserved at 4° C. for further processing.
# RNA extraction and array processing was carried out by SourceBioscience. The arrays used were the Agilent Rat expression arrays.
# Statistical analysis was carried out using the Metaboanalyst software package. Gene expression changes of 10% with a p<0.05 were regarded as significant.
# Pathway analysis of the differentially regulated genes was carried out using the Ingenuity pathway analysis package. The analysis was performed with special reference to pathways and molecular processes and diseases associated with neurodegenerative disease, including dementia, Alzheimer's disease, ALS, TBI and stroke, and with scarring and fibrosis, including glaucoma and normal pressure hydrocephalus (NPH) after subarachnoid haemorrhage.
# [1] = 7 days after TBI, relative to control
substance,measurement,setting,value
low molecular weight dextran sulfate [LMW-DS],"Ingenuity canonical pathway PPARα/RXRα Activation, z score",[1],*
same,"Ingenuity canonical pathway Phospholipase C Signaling, z score",[1],1
same,"Ingenuity canonical pathway Production of Nitric Oxide and Reactive Oxygen Species in Macrophages, z score",[1],2.236
same,"Ingenuity canonical pathway Protein Kinase A Signaling, z score",[1],−1.342
same,"Ingenuity canonical pathway Role of NFAT in Cardiac Hypertrophy, z score",[1],*
same,"Ingenuity canonical pathway Role of NFAT in Regulation of the Immune Response, z score",[1],2.53
same,"Ingenuity canonical pathway STAT3 Pathway, z score",[1],*
same,"Ingenuity canonical pathway Signaling by Rho Family GTPases, z score",[1],1
same,"Ingenuity canonical pathway Synaptic Long Term Depression, z score",[1],1
same,"Ingenuity canonical pathway VDR/RXR Activation, z score",[1],*
same,"Ingenuity canonical pathway Wnt/β-catenin Signaling, z score",[1],−1
same,"Ingenuity canonical pathway cAMP-mediated signaling, z score",[1],−2
same,Diseases or functions annotation: Apoptosis,"after 7 days, TBI: Activated",Inhibited
same,Diseases or functions annotation: Apoptosis of tumor cell lines,"after 7 days, TBI: Activated",Inhibited
same,Diseases or functions annotation: Bleeding,"after 7 days, TBI: Activated",Inhibited
same,Diseases or functions annotation: Breast or colorectal cancer,"after 7 days, TBI: Activated",Inhibited
same,Diseases or functions annotation: Breast or ovarian cancer,"after 7 days, TBI: Activated",Inhibited
same,Diseases or functions annotation: Cell death,"after 7 days, TBI: Activated",Activated
same,Diseases or functions annotation: Cell death of epithelial cells,"after 7 days, TBI: Activated",Activated
same,Diseases or functions annotation: Cell death of tumor cell lines,"after 7 days, TBI: Activated",Inhibited
same,Diseases or functions annotation: Development of sensory organ,"after 7 days, TBI: Activated",Activated
same,Diseases or functions annotation: Digestive organ tumor,"after 7 days, TBI: Activated",Inhibited
same,Diseases or functions annotation: Extracranial solid tumor,"after 7 days, TBI: Activated",Activated
same,Diseases or functions annotation: Failure of kidney,"after 7 days, TBI: Activated",Activated
same,Diseases or functions annotation: Formation of eye,"after 7 days, TBI: Activated",Activated
same,Diseases or functions annotation: Gastrointestinal tumor,"after 7 days, TBI: Activated",Inhibited
same,Diseases or functions annotation: Glucose metabolism disorder,"after 7 days, TBI: Activated",Activated
same,Diseases or functions annotation: Hematologic cancer,"after 7 days, TBI: Activated",Inhibited
same,Diseases or functions annotation: Hematologic cancer of cells,"after 7 days, TBI: Activated",Inhibited
same,Diseases or functions annotation: Hematopoietic neoplasm,"after 7 days, TBI: Activated",Inhibited
same,Diseases or functions annotation: Intestinal tumor,"after 7 days, TBI: Activated",Inhibited
same,Diseases or functions annotation: Lymphatic system tumor,"after 7 days, TBI: Activated",Inhibited
same,Diseases or functions annotation: Lymphocytic cancer,"after 7 days, TBI: Activated",Inhibited
same,Diseases or functions annotation: Lymphocytic neoplasm,"after 7 days, TBI: Activated",Inhibited
same,Diseases or functions annotation: Lymphoid cancer,"after 7 days, TBI: Activated",Inhibited
same,Diseases or functions annotation: Lymphoma,"after 7 days, TBI: Activated",Inhibited
same,Diseases or functions annotation: Lymphoproliferative disorder,"after 7 days, TBI: Activated",Inhibited
same,Diseases or functions annotation: Lymphoreticular neoplasm,"after 7 days, TBI: Activated",Inhibited
same,Diseases or functions annotation: Morbidity or mortality,"after 7 days, TBI: Activated",Inhibited
same,Diseases or functions annotation: Necrosis,"after 7 days, TBI: Activated",Activated
same,Diseases or functions annotation: Necrosis of epithelial tissue,"after 7 days, TBI: Activated",Activated
same,Diseases or functions annotation: Neoplasia of leukocytes,"after 7 days, TBI: Activated",Inhibited
same,Diseases or functions annotation: Obesity,"after 7 days, TBI: Activated",Activated
same,Diseases or functions annotation: Organismal death,"after 7 days, TBI: Activated",Inhibited
same,Diseases or functions annotation: Peripheral vascular disease,"after 7 days, TBI: Activated",Activated
same,Diseases or functions annotation: Renal impairment,"after 7 days, TBI: Activated",Activated
same,Diseases or functions annotation: Sensory system development,"after 7 days, TBI: Activated",Inhibited
same,Diseases or functions annotation: Skin lesion,"after 7 days, TBI: Activated",Inhibited
same,Diseases or functions annotation: Skin tumor,"after 7 days, TBI: Activated",Inhibited
same,Diseases or functions annotation: Abdominal adenocarcinoma,"after 7 days, TBI: Inhibited",Activated
same,Diseases or functions annotation: Abdominal cancer,"after 7 days, TBI: Inhibited",Inhibited
same,Diseases or functions annotation: Abdominal carcinoma,"after 7 days, TBI: Inhibited",Inhibited
same,Diseases or functions annotation: Abdominal neoplasm,"after 7 days, TBI: Inhibited",Activated
same,Diseases or functions annotation: Adenocarcinoma,"after 7 days, TBI: Inhibited",Inhibited
same,Diseases or functions annotation: Angiogenesis,"after 7 days, TBI: Inhibited",Activated
same,Diseases or functions annotation: Breast or pancreatic cancer,"after 7 days, TBI: Inhibited",Inhibited
same,Diseases or functions annotation: Cancer,"after 7 days, TBI: Inhibited",Activated
same,Diseases or functions annotation: Cancer of cells,"after 7 days, TBI: Inhibited",Activated
same,Diseases or functions annotation: Cancer of secretory structure,"after 7 days, TBI: Inhibited",Activated
same,Diseases or functions annotation: Carcinoma,"after 7 days, TBI: Inhibited",Inhibited
same,Diseases or functions annotation: Cell cycle progression,"after 7 days, TBI: Inhibited",Activated
same,Diseases or functions annotation: Cell movement,"after 7 days, TBI: Inhibited",Activated
same,Diseases or functions annotation: Cell movement of endothelial cells,"after 7 days, TBI: Inhibited",Activated
same,Diseases or functions annotation: Cell movement of myeloid cells,"after 7 days, TBI: Inhibited",Activated
same,Diseases or functions annotation: Cell movement of tumor cell lines,"after 7 days, TBI: Inhibited",Activated
same,Diseases or functions annotation: Cell survival,"after 7 days, TBI: Inhibited",Activated
same,Diseases or functions annotation: Cell viability,"after 7 days, TBI: Inhibited",Activated
same,Diseases or functions annotation: Cell viability of tumor cell lines,"after 7 days, TBI: Inhibited",Activated
same,Diseases or functions annotation: Cellular homeostasis,"after 7 days, TBI: Inhibited",Activated
same,Diseases or functions annotation: Chemotaxis,"after 7 days, TBI: Inhibited",Activated
same,Diseases or functions annotation: Concentration of lipid,"after 7 days, TBI: Inhibited",Inhibited
same,Diseases or functions annotation: Development of body axis,"after 7 days, TBI: Inhibited",Activated
same,Diseases or functions annotation: Development of body trunk,"after 7 days, TBI: Inhibited",Activated
same,Diseases or functions annotation: Development of connective tissue cells,"after 7 days, TBI: Inhibited",Activated
same,Diseases or functions annotation: Development of epithelial tissue,"after 7 days, TBI: Inhibited",Activated
same,Diseases or functions annotation: Development of genitourinary system,"after 7 days, TBI: Inhibited",Inhibited
same,Diseases or functions annotation: Development of head,"after 7 days, TBI: Inhibited",Activated
same,Diseases or functions annotation: Development of neurons,"after 7 days, TBI: Inhibited",Activated
same,Diseases or functions annotation: Development of vasculature,"after 7 days, TBI: Inhibited",Activated
same,Diseases or functions annotation: Differentiation of bone,"after 7 days, TBI: Inhibited",Activated
same,Diseases or functions annotation: Differentiation of bone cells,"after 7 days, TBI: Inhibited",Activated
same,Diseases or functions annotation: Differentiation of connective tissue cells,"after 7 days, TBI: Inhibited",Activated
same,Diseases or functions annotation: Digestive system cancer,"after 7 days, TBI: Inhibited",Inhibited
same,Diseases or functions annotation: Endocrine gland tumor,"after 7 days, TBI: Inhibited",Inhibited
same,Diseases or functions annotation: Expression of RNA,"after 7 days, TBI: Inhibited",Activated
same,Diseases or functions annotation: Genital tumor,"after 7 days, TBI: Inhibited",Activated
same,Diseases or functions annotation: Genitourinary carcinoma,"after 7 days, TBI: Inhibited",Activated
same,Diseases or functions annotation: Genitourinary tumor,"after 7 days, TBI: Inhibited",Activated
same,Diseases or functions annotation: Growth of connective tissue,"after 7 days, TBI: Inhibited",Inhibited
same,Diseases or functions annotation: Growth of epithelial tissue,"after 7 days, TBI: Inhibited",Inhibited
same,Diseases or functions annotation: Growth of tumor,"after 7 days, TBI: Inhibited",Activated
same,Diseases or functions annotation: Head and neck cancer,"after 7 days, TBI: Inhibited",Inhibited
same,Diseases or functions annotation: Head and neck tumor,"after 7 days, TBI: Inhibited",Inhibited
same,Diseases or functions annotation: Invasion of cells,"after 7 days, TBI: Inhibited",Activated
same,Diseases or functions annotation: Leukocyte migration,"after 7 days, TBI: Inhibited",Activated
same,Diseases or functions annotation: Malignant genitourinary solid tumor,"after 7 days, TBI: Inhibited",Activated
same,Diseases or functions annotation: Malignant solid tumor,"after 7 days, TBI: Inhibited",Activated
same,Diseases or functions annotation: Microtubule dynamics,"after 7 days, TBI: Inhibited",Activated
same,Diseases or functions annotation: Migration of cells,"after 7 days, TBI: Inhibited",Activated
same,Diseases or functions annotation: Migration of endothelial cells,"after 7 days, TBI: Inhibited",Activated
same,Diseases or functions annotation: Neoplasia of cells,"after 7 days, TBI: Inhibited",Activated
same,Diseases or functions annotation: Non-hematological solid tumor,"after 7 days, TBI: Inhibited",Activated
same,Diseases or functions annotation: Non-melanoma solid tumor,"after 7 days, TBI: Inhibited",Activated
same,Diseases or functions annotation: Nonhematologic malignant neoplasm,"after 7 days, TBI: Inhibited",Inhibited
